The values that follow come from patent publication US6867305B2, “Synthesis of epothilones, intermediates thereto and analogues thereof” (Sloan-Kettering Institute for Cancer Research, priority 1996, dated 2005).

The subject of data set [1] is HT-29 colon adenocarcinoma xenograft. The experiment in a line: Human tumor xenograft in nude mice. It is filed as in vivo. Here is the method: (§1) Depending on the tumor type, treatment started on day 10 to day 21 when subcutaneous tumor size reached 35-200 mm^3, except otherwise indicated. Tumor size and body-weight were recorded every other day (Q2D) and, for humane reasons, the animals were sacrificed when tumor size reached ≧10% of body-weight. Each group, including untreated control, consisted of 3-5 animals unless otherwise indicated.
(§2) Athymic nude mice bearing the nu/nu gene were used for all human tumor xenografts. Outbred, Swiss-background mice were obtained from Charles River Laboratories. Male mice 8 weeks or older weighing 22 g and up were used for most experiments. The drug was administered via the tail vein for 6 hr.-i.v. infusion. Each individual mouse was confined in a perforated Falcon polypropylene tube restrainer for drug administration. Tumor volume was assessed by measuring length×width×height (or width) using a caliper. The programmable Harvard PHD2000 syringe pump (Harvard Apparatus) with multi-track was used for i.v. infusion. […] All animal studies were conducted in accordance with the guidelines of the National Institutes of Health “Guide for the Care and Use of Animals” and the protocol approved by the Memorial Sloan-Kettering Cancer Center's Institutional Animal Care and Use Committee. In keeping with the policy of this committee for the humane treatment of tumor-bearing animals, mice were euthanized when tumors reached ≧10% of their total body weight.
(§3) Human tumor cells (5×10^6) or tumor tissue (30-50 mg) were implanted s.c. flank in nu/nu mice (Charles River Laboratories, Wilmington, Mass.). When tumor grew to a specified size, treatment was started by every-other day×5 with 6 hr i.v.-infusion, unless otherwise indicated. Tumor volume was measured with calipers in three dimensions (length×width×height or width). Body-weight changes and lethality were monitored every other day.
For orientation: A xenograft is tissue or cells of one species grown in another, often human tumour cells in immunodeficient mice.

Data set [2] relates to UL3-C ovary adenocarcinoma xenograft. In words: Human tumor xenograft in nude mice. It is filed as in vivo. Here is the method: as §1, §2, §3
Data set [3] relates to PC-3 prostate adenocarcinoma xenograft. In words: Human tumor xenograft in nude mice. Format: in vivo. Here is the method: as §1, §2, §3
The test system of data set [4] is A549 lung carcinoma xenograft. The experiment in a line: Human tumor xenograft in nude mice. It is filed as in vivo. Here is the method: as §1, §2, §3
The subject of data set [5] is HL-60 promyelocytic leukemia xenograft. In words: Human tumor xenograft in nude mice. It is filed as in vivo. Here is the method: as §1, §2, §3
Data set [6] relates to CCRF-CEM/VBL leukemia xenograft. The experiment in a line: Human tumor xenograft in nude mice. It is filed as in vivo. The conditions noted are these: for Lowest Average Tumor Size (T/C) / Tumor Disappearance: CCRF/VBL, dEpoB 30 mg/kg, Taxol 20 mg/kg, Q2Dx5, 6-hr i.v. infusion. Here is the method:
as §1, §2, §3

Data set [7] concerns CCRF-CEM/Taxol leukemia xenograft. In words: Human tumor xenograft in nude mice. Format: in vivo. Conditions: for Lowest Average Tumor Size (T/C) / Tumor Disappearance: CCRF/Taxol, dEpoB 30 mg/kg, Taxol 20 mg/kg, Q2Dx5, 6-hr i.v. infusion. Here is the method: as §1, §2, §3
For another data set, the system named is CCRF-CEM/VBL. The experiment in a line: Relative potency in vitro, very highly resistant MDR cells. Format: cell-based, human. Conditions: for IC50: Homo sapiens, CCRF-CEM, read-out: CCRF-CEM/VBL IC50 in μM; for Fold of Resistance (B)/(A): [IC50 CCRF-CEM/VBL]/[IC50 CCRF-CEM]. Here is the method: The cells were cultured at an initial density of 2-5×10^4 cells per ml. They were maintained in a 5% CO2-humidified atmosphere at 37° C. in RPMI mediun 1640 (GIBCO/BRL) containing penicillin (100 units/ml), streptomycin (100 μg/ml) (GIBCO/BRL), and 5% heat-inactivated fetal bovine serum. For solid tumor cells growing in a monolayer (such as MCF-7/Adr), cytotoxicitiy of the drug was determined in 96-well microtiter plates by using the sulforhodamine B method as described by Skehan et al (23) for measuring the cellular protein content. For cells that were grown in suspension (such as CCRF-CEM and its sublines), cytotoxicitiy was measured by using the 2,-3-bis(2-methoxy-4-nitro-5-sulfophenyl)-5carboxanilide)-2H terazodium hydroxide (XTT)-microculture tetrazonium method (24) in duplicate in 96-well microtiter plates. For both methods, the absorbance of each well was measured with a microplate reader (EL-340, Bio-Tek, Burlington, Vt.). Each run entailed six or seven concentrations of the tested drugs. Dose-effect relationship data were analyzed with the median-effect plot (25) by using a previously described computer program (26).

Data set [8] is described as follows: Stability in plasma in vitro (HPLC). Format: in vitro ADME, human. Here is the method: (§4) (FIG. 44). […] (FIG. 44).
(§5) Human blood plasma or nude mice plasma (300 μl) containing dEpoB (0.05-20 μg/ml) was added 30 μl of methanol and mixed for 2 min and then added 300 μl of methanol. The centrifuge supernatant was used for high performance liquid chromatography (HPLC). Nova-pak C18 column (15 cm) was used, with 50% acetonitrile/water with 0.8% triethylamine and 0.2% phosphoric acid as mobile phase. UV absorbance at 250 nm was measured.
(§6) Stability of dEpoF in animal plasmas. A HPLC method is set up using a NovaPak C 18, 3.9×300 mm column with a mobile phase of 50% acetonitrile in 50 mM potassium dihydrogen phosphate with 0.01% triethylamine at a flow rate of 0.8 ml/min. dEpoF is monitored at a wavelength of 260 nm and has a retention time of about 10 min. The plasma stability is performed with mouse plasma and dog plasma purchased from Pel-Freeze and human plasma from the blood center in MSKCC. A small amount of dEpoF was dissolved in 50% methanol/water at a concentration of 500 μg/mL. An aliquot of 20 μL is then spiked to 2 mL of plasma to a final plasma concentration of 5 μg/mL. The plasma samples were kept at 37 degree. […] Twenty μL of the supernatant was analyzed by HPLC without further modification. dEpoF disappears rapidly with half life about one hour in the commercial frozen mouse plasma alone, but stable in dog and human plasma.

Data set [9] can be described thus: Stability in plasma in vitro (HPLC). Format: in vitro ADME, mouse. Here is the method: as §4, §5, §6
Where [10] appears, read: HT-29, dEpoB 30 mg/kg, Taxol 15 mg/kg, Q2Dx6, 6-hr i.v. infusion.
Setting [11] is: dEpoB 30 mg/kg, Taxol 20 mg/kg, Q2Dx5, 6-hr i.v. infusion.
The mark [12] stands for this setting: PC-3, dEpoB 40 mg/kg, Taxol 15 mg/kg, Q2Dx3, 6-hr i.v. infusion.
Setting [13] is: A549, dEpoB 40 mg/kg, Taxol 15 mg/kg, Q2Dx3, 6-hr i.v. infusion.
[14] abbreviates: HL-60, dEpoB 30 mg/kg, Taxol 20 mg/kg, Q2Dx5, 6-hr i.v. infusion.

Structures are written as SMILES. Some results are limits rather than exact numbers.

For `CC(=O)O[C@H]1C(=O)[C@@]2(C)[C@H]([C@H](OC(=O)c3ccccc3)[C@]3(O)C[C@H](OC(=O)[C@H](O)[C@@H](NC(=O)c4ccccc4)c4ccccc4)C(C)=C1C3(C)C)[C@]1(OC(C)=O)CO[C@@H]1C[C@@H]2O` [Taxol, paclitaxel, reference compound], the “Tumor Disappearance” value in [1] (setting [10]) is reported as 0/4; in data set [2] (setting [11]), 0/3; in [3] (setting [12]), 0/4; in data set [4] (setting [13]), 2/4; in data set [5] (setting [14]) it was 4/4; in data set [6], 0/2. Besides, the “Tumor Disappearance” value in [7] is on record as 0/2. The “Lowest Average Tumor Size (T/C)” value in data set [6] is given as 0.62; in [7] it was 0.32.

Take `C/C1=C/C[C@@H](/C(C)=C/c2csc(C)n2)OC(=O)C[C@H](O)C(C)(C)C(=O)[C@H](C)[C@@H](O)[C@@H](C)CCC1` [dEpoB, 12,13-desoxyepothilone B]: the IC50 in the data set with CCRF-CEM/VBL worked out at 0.637 µM. Moreover, in the data set on CCRF-CEM/VBL, the “Fold of Resistance (B)/(A)” value is 8.6 x. Moreover, the “period of stability in human plasma in vitro” value in data set [8] (human plasma, HPLC) is recorded as “over 3 hrs”. For the same molecule, the half-life in data set [9] (nude, mouse, plasma, nude mice plasma, HPLC, read-out: t1/2 in nude mice plasma in vitro) was approximately 20 min. The “Therapeutic Effect Rank Order” value was “Taxol>dEpoB” in [1] (HT-29, i.v. infusion); “dEpoB≧ Taxol” in data set [2] (i.v. infusion); “Taxol, VBL>dEpoB>>VP-16” in [3] (PC-3, i.v. infusion); “Taxol>dEpoB>>Adriamycin” in data set [3] (PC-3, i.v. or i/p.); “Taxol, dEpoB, VBL>VP-16” in [4] (A549, i.v. infusion); “Taxol≧ dEpoB” in data set [5] (HL-60, i.v. infusion). The “Therapeutic Effect Rank Order” value is given as “dEpoB>>>Taxol” in [6] (CCRF-CEM/VBL, i.v. infusion) and “dEpoB>>>Taxol” in data set [7] (CCRF-CEM/Taxol, i.v. infusion). The “Lowest Average Tumor Size (T/C)” value in data set [1] (setting [10]) was determined as 0.02; in data set [2] (setting [11]), 0.03; in data set [3] (setting [12]) it was 0.12; in data set [4] (setting [13]), 0.01; in data set [5] (setting [14]), 0.01; in data set [6] it was 0. In addition, in data set [7], the “Lowest Average Tumor Size (T/C)” value is given as 0. For the same molecule, the “Tumor Disappearance” value in [1] (setting [10]) is 0/3; in data set [2] (setting [11]) it was 0/3; in data set [3] (setting [12]) it was 0/3; in [4] (setting [13]) it was 1/3; in [5] (setting [14]) it was 2/3; in data set [6], 2/2. Besides, in [7], the “Tumor Disappearance” value was 3/3. For the same molecule, in data set [3] (PC-3, dEpoB 40 mg/kg, Taxol 15 mg/kg, Q2Dx3), the “Therapeutic Effects dEpoB vs Taxol” value is recorded as “<<”.

Regarding `C/C1=C/C[C@@H](/C(C)=C/c2csc(CO)n2)OC(=O)C[C@H](O)C(C)(C)C(=O)[C@H](C)[C@@H](O)[C@@H](C)CCC1` [dEpoF, 12,13-Desoxyepothilone F], in the data set on CCRF-CEM/VBL, the IC50 is 0.287 µM and the “Fold of Resistance (B)/(A)” value came to 33.6 x. In the data set on CCRF-CEM/VBL (MDR CCRF-CEM/VBL cells), the “potency relative to dEpoB (times less potent)” value is given as 4.5 ×. Moreover, the “stability in human plasma” value in data set [8] (5 μg/mL, 37 degree) was “stable”. The “half life in mouse plasma” value in [9] (commercial frozen mouse plasma, 5 μg/mL, 37 degree) was “about one”.
